Where two headings read alike, the source gives them in different places.
Tests used:
[1] = Cellular toxicity by WST-1 staining; type: cell-based; conditions: human, CBMCs
Protocol: The cellular toxicity of the compounds were assessed on various cells using [^3H]-thymidine uptake. Various cells, including Molt-4, HT1080, DU-145, HepG-2 and HSF, were plated at a concentration of 1-2×10^3 cells per well (96 well plates). After a 24 hr incubation period, 10-fold serial diluted compounds (b 10^−4 M to 10^−10 M) were added to the culture medium and the cells were further incubated for 72 hrs. [^3H]-thymidine was added during the final 18 hr incubation period. After incubation with the [^3H]-thymidine, the cells were washed once with PBS, treated with trypsin if the cells were adherent, and then resuspended in water (hypotonic lysing of cells). The cellular extract was applied directly to a Tomtec Harvester 96. Using this instrument the extracted DNA is adsorbed onto filters, washed and the incorporated [^3H]-thymidine is then counted. The 50% cytotoxic concentration (CC50) was determined by comparing the radioactive counts per minute of the samples in the presence of the compounds against the control. The cellular toxicity of the compounds was also tested by WST-1 staining through assessing proliferation of MT-2, H9, Jurkat, U937, and CBMCs. The established cell lines were cultured in RPMI medium in 96-well plates at a density of 5×10^4 cells/well while CBMCs were plated at a concentration of 0.5×10^6/well. A 10-fold serial diluted (10^−4-10^−7 M) compound was added at day zero. At day 4, the cells were passaged by changing half medium containing appropriately diluted compound. The cell activities were assessed at day 7 using the WST-1 reagent (Boehringer Mannheim) following the protocol provided by the supplier.
In the WST-1 staining experiments, cell lines were cultured in RPMI medium in 96-well plates at a density of 5×10^4 cells/well. CBMCs were plated at a concentration of 0.5×10^6/well. Compounds (10^−4-10^−7 M) were added at day zero. Cell viability was assessed on day 7 using the WST-1 reagent (Boehringer Mannheim) following the protocol provided by the supplier.

[2] = Preliminary pharmacokinetic study in male adult rats; type: in vivo; conditions: rat; for half-life / AUC / Cmax: male, plasma; for AUC: read-out: AUC; for Cmax: read-out: Cmax
Protocol: The bioavailability of the compounds were evaluated in male adult rats dosed intravenously through the tail vein (5 mg/kg) and orally (20 mg/kg). The plasma samples were collected at 2, 5, 15, 30, 60, 90, 120 and 240 minutes after intravenous dosing and 5, 15, 30, 60, 90, 120, 240 and 360 minutes after oral dosing.
Blood samples (1 ml) were collected from the rat tails into a vacutainer containing EDTA (3 ml) for both iv and po administrations. Plasma samples were prepared by centrifugation at 2000 ×g for 15 minutes at 4° C.
Plasma samples (diluted to 1 ml with water) were loaded onto the Abselut Nexus sorbent (# 1210-3100 ) and drawn through under low vacuum (approximately 5′′ Hg). One milliliter of deionized water was added to the sorbent and drawn through under vacuum. The extraction column was dried for 1 minute using a high vacuum (>10′′ Hg). One milliliter of methanol was added to the Abselut Nexus column and the eluent was collected at 1-2 ml/min. The eluent was evaporated to dryness using a Speed Vac, and the samples were reconstituted in 120 μl H2O; 100 μl was used for injection.

[3] = system: K65R; assay: Recombinant drug resistant HIV-1 variants (RT activity); type: cell-based; conditions: Human immunodeficiency virus 1
Protocol: ANTIVIRAL ASSAYS. The anti-HIV-1 activity of the compound A (−) were assessed by employing HIV-1IIIB in a variety of cell types as previously described (Gu et al., 1992, 1994, 1999; Rando et al., 1995; Salomon et al., 1994). Briefly, cells were incubated with virus at a multiplicity of infection (MOI) of 0.005 for T cell assays and an MOI of 0.5 for monocytic cell assays for 3 hrs. Unbound virus was then removed by washing the cells, followed by seeding the cells into a 96-well plate. The infected cells were cultured in the presence of a serial concentrations of the test compound for 5-7 days. The anti-HIV-1 efficacy was determined by testing for HIV-1 RT activity or p24 level in the cell culture supernatants. All assays were performed in duplicate. Zidovudine and/or lamivudine were used as controls in each experiment.
Recombinant HIV-1 variants were prepared by introducing the designed mutations into HXB2-D by site-directed mutagenesis as described (Gu et al. 1992, 1994). The virus stocks were prepared by transfecting MT-4 cells with infectious viral DNA constructs. Antiviral activity of the compound A (−) was evaluated as described in example 10.

[4] = system: HT1080; assay: Cellular toxicity by [3H]-thymidine uptake; type: cell-based; conditions: Table 4; 72 hrs
Outline: (§1)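 Cells plated at 1-2×10^3/well, pre-incubated 24 h, then exposed 72 h to 10-fold serial compound dilutions (10^−4 M to 10^−10 M). [3H]-thymidine was added for the final 18 h and DNA incorporation counted after hypotonic lysis and harvesting. CC50 derived from cpm relative to untreated controls.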

[5] = system: HepG-2; assay: Cellular toxicity by [3H]-thymidine uptake; type: cell-based; conditions: Table 4; 72 hrs
Outline: as §1

[6] = system: Molt-4; assay: Cellular toxicity by [3H]-thymidine uptake; type: cell-based; conditions: Table 14; 72 hrs; read-out: CC50 (μM) [^3H]TTP incorporation in: Molt4
Outline: as §1

[7] = system: HSF; assay: Cellular toxicity by [3H]-thymidine uptake; type: cell-based; conditions: Table 14; 72 hrs; read-out: CC50 (μM) [^3H]TTP incorporation in: HSF
Outline: as §1

| SMILES | CC50 at 7 days ([1]; Table 14, day 7, read-out: CC50 (μM) WST-1 CBMC) | half-life ([2]; iv 5 mg/kg) | AUC ([2]; iv 5 mg/kg) | Cmax ([2]; iv 5 mg/kg) | half-life ([2]; oral 20 mg/kg) | AUC ([2]; oral 20 mg/kg) | Cmax ([2]; oral 20 mg/kg) | Oral BA (%) ([2]; oral 20 mg/kg) | EC50 [3] | CC50 (μM) [^3H-]TTP incorporation in: HT1080 [4] | CC50 (μM) [^3H-]TTP incorporation in: HepG2 [5] | CC50 [6] | CC50 at 7 days ([1]; Table 4, day 7, read-out: CC50 (μM) WST-1 CBMC) | CC50 [7] |
| --- | --- | --- | --- | --- | --- | --- | --- | --- | --- | --- | --- | --- | --- | --- |
| Nc1nc(NC2CC2)c2ncn([C@H]3CO[C@@H](CO)O3)c2n1 [Compound A (-), (−)-(2R,4R)-2-hydroxymethyl-4-(2′-amino-6′-cyclopropylamino-purine-9′-yl)-1,3-dioxolane] | > 100 µM | 22.2 min | 4740 ng·h/mL | 14300 ng/mL | 38.4 min | 8640 ng·h/mL | 4200 ng/mL | 45.56% | 1.03 µM |  |  |  |  |  |
| Nc1ccn([C@@H]2CS[C@H](CO)O2)c(=O)n1 [Lamivudine, lamivudine] |  |  |  |  |  |  |  |  | 4.31 µM | >500/100 | 350/100 | > 100 µM |  |  |
| Cc1cn([C@H]2C[C@H](N=[N+]=[N-])[C@@H](CO)O2)c(=O)[nH]c1=O [Zidovudine, zidovudine] |  |  |  |  |  |  |  |  |  |  |  |  | 74 µM | > 10 µM |
